Active and inactive are the calls of the source. The calls are words filed in the database; no cut-off is given here.
Assays:
[1] = biological target: Toll-like receptor 3 (Homo sapiens) (UniProt O15455); assay: Activation of human TLR3 expressed in HEK293 assessed as induction of NF-kappaB activity reporter gene assay; format: cell-based
[2] = biological target: T1, Toll-like receptor 9 (Mus musculus) (UniProt Q9EQU3); assay: Activation of mouse TLR9 expressed in HEK293 assessed as induction of NF-kappaB activity reporter gene assay; format: cell-based
T1 sequence (whole entry): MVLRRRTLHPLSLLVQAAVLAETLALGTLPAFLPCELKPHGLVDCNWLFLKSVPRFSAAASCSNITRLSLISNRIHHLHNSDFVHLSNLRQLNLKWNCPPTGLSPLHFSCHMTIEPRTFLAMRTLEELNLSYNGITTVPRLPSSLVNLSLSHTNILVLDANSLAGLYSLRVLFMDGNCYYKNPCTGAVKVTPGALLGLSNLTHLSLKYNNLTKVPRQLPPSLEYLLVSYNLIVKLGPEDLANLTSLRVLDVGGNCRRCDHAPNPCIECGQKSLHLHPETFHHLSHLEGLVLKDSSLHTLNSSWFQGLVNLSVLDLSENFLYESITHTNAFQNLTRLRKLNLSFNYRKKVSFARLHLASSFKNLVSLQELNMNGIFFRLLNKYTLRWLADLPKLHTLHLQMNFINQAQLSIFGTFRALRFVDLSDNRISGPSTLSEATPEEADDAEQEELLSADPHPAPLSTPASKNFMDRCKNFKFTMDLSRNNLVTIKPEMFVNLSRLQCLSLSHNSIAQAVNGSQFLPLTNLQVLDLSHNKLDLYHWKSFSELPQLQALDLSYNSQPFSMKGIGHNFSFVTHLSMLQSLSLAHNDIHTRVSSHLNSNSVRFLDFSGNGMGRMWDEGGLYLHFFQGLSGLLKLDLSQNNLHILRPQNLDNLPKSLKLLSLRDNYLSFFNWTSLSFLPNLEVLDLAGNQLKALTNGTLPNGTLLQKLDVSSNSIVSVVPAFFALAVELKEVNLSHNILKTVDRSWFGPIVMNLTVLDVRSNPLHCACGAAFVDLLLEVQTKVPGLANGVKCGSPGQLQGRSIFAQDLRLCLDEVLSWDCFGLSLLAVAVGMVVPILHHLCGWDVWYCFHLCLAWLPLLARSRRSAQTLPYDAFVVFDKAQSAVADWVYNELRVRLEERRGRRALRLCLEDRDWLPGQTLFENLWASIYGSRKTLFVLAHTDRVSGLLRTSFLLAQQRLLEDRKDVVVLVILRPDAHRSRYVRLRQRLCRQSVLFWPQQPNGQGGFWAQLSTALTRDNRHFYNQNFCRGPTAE

Chain of Toll-like receptor 3 (Homo sapiens) (O15455 whole entry): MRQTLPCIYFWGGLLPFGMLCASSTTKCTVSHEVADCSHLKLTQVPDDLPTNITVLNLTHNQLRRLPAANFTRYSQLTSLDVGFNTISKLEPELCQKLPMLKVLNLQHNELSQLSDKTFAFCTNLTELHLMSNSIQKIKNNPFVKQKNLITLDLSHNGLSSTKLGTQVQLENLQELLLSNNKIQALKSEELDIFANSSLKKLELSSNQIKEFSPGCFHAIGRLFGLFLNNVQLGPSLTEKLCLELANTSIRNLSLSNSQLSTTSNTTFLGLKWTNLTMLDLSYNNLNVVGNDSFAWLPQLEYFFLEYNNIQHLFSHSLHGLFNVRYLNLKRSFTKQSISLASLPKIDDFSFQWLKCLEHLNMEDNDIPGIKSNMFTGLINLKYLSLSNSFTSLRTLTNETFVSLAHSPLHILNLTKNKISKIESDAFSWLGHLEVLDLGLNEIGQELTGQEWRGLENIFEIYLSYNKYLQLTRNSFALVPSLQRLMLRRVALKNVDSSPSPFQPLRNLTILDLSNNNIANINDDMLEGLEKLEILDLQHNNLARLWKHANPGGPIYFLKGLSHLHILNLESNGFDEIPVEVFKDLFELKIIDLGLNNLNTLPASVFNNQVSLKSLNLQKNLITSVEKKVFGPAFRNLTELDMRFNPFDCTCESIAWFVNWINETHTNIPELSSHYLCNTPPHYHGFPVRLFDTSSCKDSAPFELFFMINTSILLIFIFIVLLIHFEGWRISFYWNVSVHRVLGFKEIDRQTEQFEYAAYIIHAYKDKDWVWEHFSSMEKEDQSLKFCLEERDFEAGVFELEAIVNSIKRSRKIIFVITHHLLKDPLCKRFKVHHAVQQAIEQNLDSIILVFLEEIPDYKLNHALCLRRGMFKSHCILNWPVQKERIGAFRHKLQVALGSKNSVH

Activity [1]	Activity [2]	Structure (SMILES)
inactive	inactive	Nc1ccn([C@@H]2O[C@H](COP(=O)(S)O[C@H]3[C@@H](O)[C@H](n4ccc(N)nc4=O)O[C@@H]3COP(=O)(S)O[C@H]3[C@@H](O)[C@H](n4cnc5c(N)ncnc54)O[C@@H]3COP(=O)(S)O[C@H]3[C@@H](O)[C@H](n4ccc5c(=O)[nH]c(N)nc54)O[C@@H]3COP(=O)(S)O[C@H]3[C@@H](O)[C@H](n4ccc(=O)[nH]c4=O)O[C@@H]3COP(=O)(S)O[C@H]3[C@@H](O)[C@H](n4ccc(=O)[nH]c4=O)O[C@@H]3COP(=O)(S)O[C@H]3[C@@H](O)[C@H](n4ccc(N)nc4=O)O[C@@H]3COP(=O)(S)O[C@H]3[C@@H](O)[C@H](n4cnc5c(N)ncnc54)O[C@@H]3CO)[C@@H](OP(=O)(S)OC[C@H]3O[C@@H](n4ccc(=O)[nH]c4=O)[C@H](O)[C@@H]3OP(=O)(S)OC[C@H]3O[C@@H](n4ccc5c(=O)[nH]c(N)nc54)[C@H](O)[C@@H]3OP(=O)(S)OC[C@H]3O[C@@H](n4ccc(=O)[nH]c4=O)[C@H](O)[C@@H]3OP(=O)(S)OCC(O)COP(=O)(S)O[C@H]3[C@@H](O)[C@H](n4ccc(=O)[nH]c4=O)O[C@@H]3COP(=O)(S)O[C@H]3[C@@H](O)[C@H](n4ccc5c(=O)[nH]c(N)nc54)O[C@@H]3COP(=O)(S)O[C@H]3[C@@H](O)[C@H](n4ccc(=O)[nH]c4=O)O[C@@H]3COP(=O)(S)O[C@H]3[C@@H](O)[C@H](n4ccc(N)nc4=O)O[C@@H]3COP(=O)(S)O[C@H]3[C@@H](O)[C@H](n4ccc(N)nc4=O)O[C@@H]3COP(=O)(S)O[C@H]3[C@@H](O)[C@H](n4cnc5c(N)ncnc54)O[C@@H]3COP(=O)(S)O[C@H]3[C@@H](O)[C@H](n4ccc5c(=O)[nH]c(N)nc54)O[C@@H]3COP(=O)(S)O[C@H]3[C@@H](O)[C@H](n4ccc(=O)[nH]c4=O)O[C@@H]3COP(=O)(S)O[C@H]3[C@@H](O)[C@H](n4ccc(=O)[nH]c4=O)O[C@@H]3COP(=O)(S)O[C@H]3[C@@H](O)[C@H](n4ccc(N)nc4=O)O[C@@H]3COP(=O)(S)O[C@H]3[C@@H](O)[C@H](n4cnc5c(N)ncnc54)O[C@@H]3CO)[C@H]2O)c(=O)n1 (stereo partly specified)
inactive	inactive	Nc1ccn([C@@H]2O[C@H](COP(=O)(S)O[C@H]3[C@@H](O)[C@H](n4cnc5c(N)ncnc54)O[C@@H]3COP(=O)(S)O[C@H]3[C@@H](O)[C@H](n4ccc5c(=O)[nH]c(N)nc54)O[C@@H]3COP(=O)(S)O[C@H]3[C@@H](O)[C@H](n4ccc(=O)[nH]c4=O)O[C@@H]3COP(=O)(S)O[C@H]3[C@@H](O)[C@H](n4ccc(=O)[nH]c4=O)O[C@@H]3COP(=O)(S)O[C@H]3[C@@H](O)[C@H](n4cnc5c(N)ncnc54)O[C@@H]3COP(=O)(S)O[C@H]3[C@@H](O)[C@H](n4cnc5c(N)ncnc54)O[C@@H]3CO)[C@@H](OP(=O)(S)OC[C@H]3O[C@@H](n4ccc5c(=O)[nH]c(N)nc54)[C@H](O)[C@@H]3OP(=O)(S)OC[C@H]3O[C@@H](n4ccc(N)nc4=O)[C@H](O)[C@@H]3OP(=O)(S)OC[C@H]3O[C@@H](n4ccc(=O)[nH]c4=O)[C@H](O)[C@@H]3OP(=O)(S)OC[C@H]3O[C@@H](n4ccc5c(=O)[nH]c(N)nc54)[C@H](O)[C@@H]3OP(=O)(S)OCC(O)COP(=O)(S)O[C@H]3[C@@H](O)[C@H](n4ccc5c(=O)[nH]c(N)nc54)O[C@@H]3COP(=O)(S)O[C@H]3[C@@H](O)[C@H](n4ccc(=O)[nH]c4=O)O[C@@H]3COP(=O)(S)O[C@H]3[C@@H](O)[C@H](n4ccc(N)nc4=O)O[C@@H]3COP(=O)(S)O[C@H]3[C@@H](O)[C@H](n4ccc5c(=O)[nH]c(N)nc54)O[C@@H]3COP(=O)(S)O[C@H]3[C@@H](O)[C@H](n4ccc(N)nc4=O)O[C@@H]3COP(=O)(S)O[C@H]3[C@@H](O)[C@H](n4cnc5c(N)ncnc54)O[C@@H]3COP(=O)(S)O[C@H]3[C@@H](O)[C@H](n4ccc5c(=O)[nH]c(N)nc54)O[C@@H]3COP(=O)(S)O[C@H]3[C@@H](O)[C@H](n4ccc(=O)[nH]c4=O)O[C@@H]3COP(=O)(S)O[C@H]3[C@@H](O)[C@H](n4ccc(=O)[nH]c4=O)O[C@@H]3COP(=O)(S)O[C@H]3[C@@H](O)[C@H](n4cnc5c(N)ncnc54)O[C@@H]3COP(=O)(S)O[C@H]3[C@@H](O)[C@H](n4cnc5c(N)ncnc54)O[C@@H]3CO)[C@H]2O)c(=O)n1 (stereo partly specified)
inactive	inactive	Nc1ccn([C@@H]2O[C@H](COP(=O)(S)O[C@H]3[C@@H](O)[C@H](n4ccc(N)nc4=O)O[C@@H]3COP(=O)(S)O[C@H]3[C@@H](O)[C@H](n4cnc5c(N)ncnc54)O[C@@H]3COP(=O)(S)O[C@H]3[C@@H](O)[C@H](n4ccc5c(=O)[nH]c(N)nc54)O[C@@H]3COP(=O)(S)O[C@H]3[C@@H](O)[C@H](n4ccc(=O)[nH]c4=O)O[C@@H]3COP(=O)(S)O[C@H]3[C@@H](O)[C@H](n4ccc(=O)[nH]c4=O)O[C@@H]3COP(=O)(S)O[C@H]3[C@@H](O)[C@H](n4ccc(N)nc4=O)O[C@@H]3COP(=O)(S)O[C@H]3[C@@H](O)[C@H](n4cnc5c(N)ncnc54)O[C@@H]3CO)[C@@H](OP(=O)(S)OC[C@H]3O[C@@H](n4ccc(=O)[nH]c4=O)[C@H](O)[C@@H]3OP(=O)(S)OC[C@H]3O[C@@H](n4ccc(=O)[nH]c4=O)[C@H](O)[C@@H]3OP(=O)(S)OC[C@H]3O[C@@H](n4ccc(=O)[nH]c4=O)[C@H](O)[C@@H]3OP(=O)(S)OCC(O)COP(=O)(S)O[C@H]3[C@@H](O)[C@H](n4ccc(=O)[nH]c4=O)O[C@@H]3COP(=O)(S)O[C@H]3[C@@H](O)[C@H](n4ccc(=O)[nH]c4=O)O[C@@H]3COP(=O)(S)O[C@H]3[C@@H](O)[C@H](n4ccc(=O)[nH]c4=O)O[C@@H]3COP(=O)(S)O[C@H]3[C@@H](O)[C@H](n4ccc(N)nc4=O)O[C@@H]3COP(=O)(S)O[C@H]3[C@@H](O)[C@H](n4ccc(N)nc4=O)O[C@@H]3COP(=O)(S)O[C@H]3[C@@H](O)[C@H](n4cnc5c(N)ncnc54)O[C@@H]3COP(=O)(S)O[C@H]3[C@@H](O)[C@H](n4ccc5c(=O)[nH]c(N)nc54)O[C@@H]3COP(=O)(S)O[C@H]3[C@@H](O)[C@H](n4ccc(=O)[nH]c4=O)O[C@@H]3COP(=O)(S)O[C@H]3[C@@H](O)[C@H](n4ccc(=O)[nH]c4=O)O[C@@H]3COP(=O)(S)O[C@H]3[C@@H](O)[C@H](n4ccc(N)nc4=O)O[C@@H]3COP(=O)(S)O[C@H]3[C@@H](O)[C@H](n4cnc5c(N)ncnc54)O[C@@H]3CO)[C@H]2O)c(=O)n1 (stereo partly specified)

From ChEMBL document CHEMBL1154352, “Toll-like receptor 7 selective synthetic oligoribonucleotide agonists: synthesis and structure-activity relationship studies” (J Med Chem, 2009)
